Measurements published in US20190185829A1, “Preparation of lipase with improved ester synthesis activity by using surfactants” (Jiangnan University, priority 2017, published 2019).

Experiments:
Format in all cases: biochemical
[1] = system: Rhizopus chinensis lipase r27RCL; assay: Hydrolytic activity of surfactant-treated lipase r27RCL using pNPP as substrate; settings: protein 0.2 mg·mL^−1
Excerpt: (§1) (1) Determination of Hydrolytic Activity of the Lipase Using p-Nitrophenyl Palmitate (pNPP) as Substrate
(§2) Hydrolysis of pNPP catalyzed by lipase generates p-nitrophenol and palmitic acid. p-nitrophenol appears yellow in the buffer at pH 8.0 with the maximum absorption peak at 410 nm. Determination of hydrolytic activity can be achieved by measuring the absorbance at 410 nm.
(§3) The substrate solution A: 50 mmol·L^−1 sodium phosphate buffer (pH 8.0) containing 1.16 g·L^−1 sodium deoxycholate and 0.56 g·L^−1 arabic gum. Substrate solution B: 0.015 g pNPP is dissolved in 5 mL isopropyl alcohol. Substrate solution A and substrate solution B are mixed then stored for use afterwards.
(§4) Termination solution: 40 g·L^−1 NaOH, 93.05 g·L^−1 EDTA sodium. Add 62 uL termination solution to the reaction mixture when stopping the reaction.
(§5) Add 0.1 mL appropriately diluted enzyme solution, which is substituted by inactivated enzyme solution as the control, to 2.4 mL substrate solution above, incubate the mixture at 40° C. for 2 min and measure the absorbance at 410 nm.
(§6) one hydrolytic activity unit is defined as the amount of enzyme that catalyzes the formation of 1 μmol of p-nitrophenol in 1 minute at 40° C.
(§7) enzyme activity (U·mL^−1)=(V×A410×10^6)/(ε×t×V′) Calculation equation: […]
(§8) Specific activity: the activity of lipase per milligram of total protein in the lipase preparation. […]
(§9) Commercial lipase r27RCL was purchased from Jiangsu Yiming Biological Technology Co., Ltd, which has high hydrolytic activity and low ester synthesis activity. Dissolve the r27RCL powder in water and centrifuge to obtain the supernatant containing the r27RCL lipase to adjust the ester synthesis activity (the final protein concentration was 0.2 mg·mL^−1 and the final concentration of surfactant was 10 mM, which is between 0.1×CMC^˜200×CMC of the different surfactants in Table 1).
(§10) Commercial lipase r27RCL was purchased from Jiangsu Yiming Biological Technology Co., Ltd. r27RCL is a lipase with high hydrolytic activity but low ester synthesis activity. Dissolve the r27RCL powder in water, centrifuge to obtain the supernatant and treat the supernatant with different concentrations of surfactant LPC14 (the final protein concentration was 0.2 mg·mL^−1).

[2] = target: T1, Rhizoupus oryzae lipase ROL (Rhizopus oryzae, UniProt P61872); assay: Hydrolytic activity of surfactant-treated lipase ROL using pNPP as substrate; settings: protein 0.2 mg·mL^−1
T1 construct: purchased Sigma-Aldrich Co., Ltd
Excerpt: as §1, §2, §3, §4, §5, §6, §7, §8
(§11) Commercial lipase ROL was purchased from Sigma-Aldrich Co., Ltd. ROL is a non-immobilized lipase. Dissolve the ROL powder in water and centrifuge to obtain the supernatant containing the ROL lipase that would be regulated to improve its ester synthesis activity by adjusting the final protein concentration to 0.2 mg·mL^−1 and adding surfactants to the final concentration of 10 mM.
(§12) Commercial lipase ROL was purchased from Sigma-Aldrich Co., Ltd. and is a non-immobilized lipase. Dissolve the ROL powder in water, centrifuge to obtain the supernatant and treat the supernatant with different concentrations of surfactant LPC14 (the final protein concentration was 0.2 mg·mL^−1).

[3] = target: T1, Rhizoupus oryzae lipase ROL; assay: Ester synthesis activity of surfactant-treated lyophilized lipase ROL by GC analysis; settings: protein 0.2 mg·mL^−1
Protocol: (§13) (2) Determination of Ester Synthesis Activity of the Lipase by GC Analysis
(§14) Substrate solution A: 48.5 mL of n-octanoic acid is dissolved in 250 mL of n-heptane in a volumetric flask.
(§15) Substrate solution B: 17.5 mL of absolute ethanol is dissolved in 250 mL of n-heptane in a volumetric flask.
(§16) Internal standard: 2-hexanol/n-heptane (35 g·L^−1).
(§17) Standard sample: 10 g of n-octanoate is dissolved in 1000 mL of n-heptane in a volumetric flask.
(§18) 1 mL substrate solution A and substrate solution B are added in a 5 mL Eppendorf tube respectively, then 20 mg lipase powder (or lyophilized powder) is added. The reaction is carried out at 40° C. and with shaking at 150 rpm for 30 min. Remove the lipase powder by centrifugation or membrane filtration. Then 0.1 mL of internal standard is added in 0.4 mL of filtrate or supernatant and mixed. Measure the content of n-octanoate in the mixture above by GC analysis.
(§19) The gas chromatograph (6820, Agilent Instruments) is equipped with a AC20 (PEG20000) capillary column and a FID detector. Nitrogen was used as the carrier gas. The oven temperature was programmed to start at 90° C. for 1 min and then be elevated to 200° C. for 5 min at 10° C.·min^−1. The injector and detector temperatures were set at 250° C.
(§20) Definition of enzyme activity: One unit of ester synthesis activity is defined as the amount of enzyme that esterifies 1 micromole of n-octanoate per min.
(§21) Specific activity: the activity of lipase per milligram of total protein in the lipase preparation.
(§22) Total recovery: the percentage of the activity after a treatment to that before the treatment
(§23) Add an equal volume of high-concentration surfactant solution into the enzyme solution. The final protein concentration was […] and the surfactant concentration was 10 mM. After mixed thoroughly, the mixture was lyophilized and kept in dry condition.
as §11, §12

[4] = target: T2, Pseudomonas cepacia lipase PCL (Burkholderia cepacia, UniProt P22088); assay: Ester synthesis activity of surfactant-treated lyophilized lipase PCL by GC analysis; settings: surfactant 10 mM, protein 0.2 mg·mL^−1
T2 construct: purchased Sigma-Aldrich Co., Ltd
Protocol: as §13, §14, §15, §16, §17, §18, §19, §20, §21, §22, §23
(§24) Commercial lipase PCL was purchased from Sigma-Aldrich Co., Ltd. PCL is a non-immobilized lipase. Dissolve the PCL powder in water and centrifuge to obtain the supernatant containing the PCL lipase that would be regulated to improve the ester synthesis activity by adjusting the final protein concentration to 0.2 mg·mL^−1 and adding surfactants to the final concentration of 10 mM.
(§25) Commercial lipase PCL was purchased from Sigma-Aldrich Co., Ltd. and is a non-immobilized lipase. Dissolve the PCL powder in water, centrifuge to obtain the supernatant and treat the supernatant with different concentrations of surfactant DDM (the final protein concentration was 0.2 mg·mL^−1).

[5] = target: T3, Candida antarctica lipase CALB (Moesziomyces antarcticus, UniProt P41365); assay: Ester synthesis activity of surfactant-treated lyophilized lipase CALB by GC analysis; settings: surfactant 10 mM, protein 0.12 mg·mL^−1
T3 construct: purchased Sigma-Aldrich Co., Ltd
Protocol: as §13, §14, §15, §16, §17, §18, §19, §20, §21, §22, §23
(§26) Commercial lipase CALB was purchased from Sigma-Aldrich Co., Ltd. CALB is a non-immobilized lipase. Dissolve the CALB powder in water and centrifuge to obtain the supernatant containing the CALB lipase that would be regulated to improve the ester synthesis activity by adjusting the final protein concentration to 0.12 mg·mL^−1 and adding surfactants to the final concentration of 10 mM.
(§27) Commercial lipase CALB was purchased from Sigma-Aldrich Co., Ltd. and is a non-immobilized lipase. Dissolve the CALB powder in water, centrifuge to obtain the supernatant and treat the supernatant with different concentrations of surfactant DDM (the final protein concentration was 0.12 mg·mL^−1).

[6] = target: T3, Candida antarctica lipase CALB; assay: Hydrolytic activity of surfactant-treated lipase CALB using pNPP as substrate; settings: surfactant 10 mM, protein 0.12 mg·mL^−1
Excerpt: as §1, §2, §3, §4, §5, §6, §7, §8, §26, §27

[7] = target: T2, Pseudomonas cepacia lipase PCL; assay: Hydrolytic activity of surfactant-treated lipase PCL using pNPP as substrate; settings: surfactant 10 mM, protein 0.2 mg·mL^−1
Excerpt: as §1, §2, §3, §4, §5, §6, §7, §8, §24, §25

[8] = system: Rhizopus chinensis lipase r27RCL; assay: Ester synthesis activity of surfactant-treated lyophilized lipase r27RCL by GC analysis; settings: protein 0.2 mg·mL^−1
Protocol: as §13, §14, §15, §16, §17, §18, §19, §20, §21, §22, §23, §9, §10

[9] = surfactant concentration 0.1 x CMC
[10] = surfactant concentration 1 x CMC
[11] = surfactant concentration 10 x CMC
[12] = surfactant concentration 100 x CMC

T2 sequence (P22088 45-364): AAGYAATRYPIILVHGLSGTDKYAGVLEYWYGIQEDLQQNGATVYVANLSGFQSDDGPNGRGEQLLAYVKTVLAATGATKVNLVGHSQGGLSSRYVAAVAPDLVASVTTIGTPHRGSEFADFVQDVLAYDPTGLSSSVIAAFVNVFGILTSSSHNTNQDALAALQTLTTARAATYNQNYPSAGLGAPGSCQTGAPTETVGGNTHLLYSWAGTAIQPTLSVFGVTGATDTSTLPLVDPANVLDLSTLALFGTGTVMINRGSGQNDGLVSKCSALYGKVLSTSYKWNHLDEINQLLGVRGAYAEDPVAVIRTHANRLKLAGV
T3 sequence (P41365 26-342): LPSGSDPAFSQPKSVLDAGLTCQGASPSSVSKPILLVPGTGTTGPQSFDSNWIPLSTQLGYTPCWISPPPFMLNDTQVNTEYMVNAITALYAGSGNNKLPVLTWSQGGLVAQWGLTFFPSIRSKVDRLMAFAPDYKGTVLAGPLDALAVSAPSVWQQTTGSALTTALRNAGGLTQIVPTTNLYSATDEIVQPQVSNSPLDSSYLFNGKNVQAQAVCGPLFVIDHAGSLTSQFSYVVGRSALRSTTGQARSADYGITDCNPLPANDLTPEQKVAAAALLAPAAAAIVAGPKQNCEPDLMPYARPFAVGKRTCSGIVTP
T1 sequence (P61872 96-392): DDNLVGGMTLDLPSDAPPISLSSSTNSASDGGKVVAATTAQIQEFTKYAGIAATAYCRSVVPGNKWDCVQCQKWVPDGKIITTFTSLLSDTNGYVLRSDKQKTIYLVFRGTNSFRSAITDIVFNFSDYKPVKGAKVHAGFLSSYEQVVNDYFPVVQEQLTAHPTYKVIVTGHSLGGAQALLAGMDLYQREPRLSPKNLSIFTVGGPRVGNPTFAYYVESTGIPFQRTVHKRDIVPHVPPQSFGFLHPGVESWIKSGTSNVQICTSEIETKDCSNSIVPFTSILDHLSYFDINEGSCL

Compound: CCCCCCCCCCCCCC(=O)OCC(O)COP(=O)([O-])OCC[N+](C)(C)C (stereo not drawn) [LPC14, 1-myristyl 2-acyl-cis-propyltri-phosphatidylcholine]
- Hydrolytic activity, Total recovery ([1]; surfactant 10 mM): 97%
- Hydrolytic activity, Specific activity [1, 9]: 120.2 U · mg^−1
- Hydrolytic activity, Total recovery [1, 9]: 101%
- Hydrolytic activity, Specific activity [1, 10]: 122.2 U · mg^−1
- Hydrolytic activity, Total recovery [1, 10]: 102%
- Hydrolytic activity, Specific activity [1, 11]: 128.0 U · mg^−1
- Hydrolytic activity, Total recovery [1, 11]: 107%
- Hydrolytic activity, Specific activity [1, 12]: 125.7 U · mg^−1
- Hydrolytic activity, Total recovery [1, 12]: 102%
- Hydrolytic activity, Specific activity ([2]; surfactant 10 mM): 33.1 U · mg^−1
- Hydrolytic activity, Total recovery ([2]; surfactant 10 mM): 106%
- Hydrolytic activity, Specific activity [2, 9]: 28.7 U · mg^−1
- Hydrolytic activity, Total recovery [2, 9]: 150%
- Hydrolytic activity, Specific activity [2, 10]: 27.7 U · mg^−1
- Hydrolytic activity, Total recovery [2, 10]: 139%
- Hydrolytic activity, Specific activity [2, 11]: 31.2 U · mg^−1
- Hydrolytic activity, Total recovery [2, 11]: 162%
- Hydrolytic activity, Specific activity [2, 12]: 39.0 U · mg^−1
- Hydrolytic activity, Total recovery [2, 12]: 206%
- Ester synthesis activity, Specific activity ([3]; surfactant 10 mM): 12.2 U · mg^−1
- Ester synthesis activity, Specific activity [3, 9]: 0.4 U · mg^−1
- Ester synthesis activity, Total recovery [3, 9]: 97%
- Ester synthesis activity, Specific activity [3, 10]: 0.2 U · mg^−1
- Ester synthesis activity, Total recovery [3, 10]: 46%
- Ester synthesis activity, Specific activity [3, 11]: 1.0 U · mg^−1
- Ester synthesis activity, Total recovery [3, 11]: 240%
- Ester synthesis activity, Specific activity [3, 12]: 6.2 U · mg^−1
- Ester synthesis activity, Specific activity [4]: 44.6 U · mg^−1
- Ester synthesis activity, Specific activity [5]: 36.8 U · mg^−1
- Hydrolytic activity, Specific activity [6]: 0.54 U · mg^−1
- Hydrolytic activity, Total recovery [6]: 38%
- Hydrolytic activity, Specific activity [7]: 321.8 U · mg^−1
- Hydrolytic activity, Total recovery [7]: 119%
- Ester synthesis activity, Specific activity ([8]; surfactant 10 mM): 47.6 U · mg^−1
- Ester synthesis activity, Specific activity [8, 9]: 1.8 U · mg^−1
- Ester synthesis activity, Total recovery [8, 9]: 32%
- Ester synthesis activity, Specific activity [8, 10]: 1.4 U · mg^−1
- Ester synthesis activity, Total recovery [8, 10]: 25%
- Ester synthesis activity, Specific activity [8, 12]: 17.1 U · mg^−1
- Ester synthesis activity, Total recovery [8, 12]: 292%
